Reference: patent publication US11267811B2, “Small molecule inhibitors of galectin-3” (BRISTOL-MYERS SQUIBB COMPANY, priority 2017, dated 2022)
Where two headings read alike, the source gives them in different places.

Target: His-tagged recombinant human Gal-3 (hGal-3) (Homo sapiens (Human), UniProt P17931)
Assay: Gal-3 HTRF assay (His-tagged hGal-3 binding to B-ASF);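 note: compounds preincubated 30 min with hGal-3, then 1 h with B-ASF, detection via terbium anti-His antibody and streptavidin d2. Control with B-ASF counts as full signal, omitting B-ASF as background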
[1] = HTRF, hGal-3 15 nM, B-ASF 15 nM, read-out: hGal-3 IC50

His-tagged recombinant human Gal-3 (hGal-3), sequence (P17931 whole entry): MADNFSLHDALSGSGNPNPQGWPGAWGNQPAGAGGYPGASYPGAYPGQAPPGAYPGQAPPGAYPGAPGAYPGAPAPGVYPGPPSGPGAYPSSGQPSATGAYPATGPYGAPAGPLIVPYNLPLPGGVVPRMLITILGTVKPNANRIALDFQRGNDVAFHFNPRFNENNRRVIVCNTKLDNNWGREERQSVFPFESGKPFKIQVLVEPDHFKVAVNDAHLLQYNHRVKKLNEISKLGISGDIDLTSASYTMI

IC50 [1] [nM] | Structure (SMILES) | also measured
494 | OC[C@H]1O[C@@H](n2nncc2-c2ccc3cn[nH]c3c2)[C@H](O)[C@@H](n2cc(-c3cc(F)c(F)c(F)c3)nn2)[C@H]1O [Example 6] | 
 | Cc1nc([C@@H]2O[C@H](CO)[C@H](O)[C@H](n3cc(-c4cc(F)c(Cl)c(F)c4)nn3)[C@H]2O)n(-c2cc(C(F)F)ccc2Cl)n1 [Example A43] | IC50 (read-out: hGal IC50): 50 nM
110 | Cc1nc([C@H]2C[C@@H](n3cc(-c4cc(F)c(F)c(F)c4)nn3)[C@@H](O)[C@@H](CO)O2)n(-c2ccc3nc(C)sc3c2)n1 [Example 187] | 
6350 | Cc1nc([C@@H]2O[C@H](CO)[C@H](O)[C@H](n3cc(-c4cccc(F)c4)nn3)[C@H]2O)oc1C(=O)O [Example 301, 2-((2R,3R,4S,5R,6R)-4-(4-(3-fluorophenyl)-1H-1,2,3-triazol-1-yl)-3,5-dihydroxy-6-(hydroxymethyl)tetrahydro-2H-pyran-2-yl)-4-methyloxazole-5-carboxylic acid] | 
160 | COc1cccc(-n2cnnc2[C@@H]2O[C@H](CO)[C@H](O)[C@H](n3cc(-c4cc(F)c(F)c(F)c4)nn3)[C@H]2O)c1 [Example 152] | 
60 | Cc1nc([C@@H]2O[C@H](CO)[C@H](O)[C@H](n3cc(-c4cc(F)c(F)c(F)c4)nn3)[C@H]2O)n(-c2cc(Cl)c(Cl)cc2C)n1 [Example 69] | 
 | Cc1nc2ccc(-n3ncnc3[C@@H]3O[C@H](CO)[C@H](O)[C@H](n4cc(-c5ccc(N(C)S(C)(=O)=O)c(F)c5)nn4)[C@H]3O)cc2s1 [Example 208] | IC50 (read-out: hGal3 IC50): 3820 nM
 | Cc1nc([C@@H]2O[C@H](CO)[C@H](O)[C@H](n3cc(-c4ccc(Br)c(F)c4)nn3)[C@H]2O)n(-c2cc(Cl)ccc2C(F)F)n1 [Example A61] | IC50 (read-out: hGal IC50): 49 nM
5650 | Cc1nc2ccc(-n3ncnc3[C@@H]3O[C@H](CO)[C@H](O)[C@H](n4cc(C(=O)N(C)C)nn4)[C@H]3O)cc2s1 [Example 196] | 
617 | OC[C@H]1O[C@@H](n2nncc2-c2ccccc2)[C@H](O)[C@@H](n2cc(-c3cc(F)c(F)c(F)c3)nn2)[C@H]1O [Example 3] | 
 | Cc1nc2ccc(-n3ncnc3[C@@H]3O[C@H](CO)[C@H](O)[C@H](n4cc(-c5ccc(C(F)(F)F)c(F)c5)nn4)[C@H]3O)cc2s1 [Example 209] | IC50 (read-out: hGal3 IC50): 80 nM
 | Cc1nc([C@@H]2O[C@H](CO)[C@H](O)[C@H](n3cc(-c4cc(F)c(Cl)c(F)c4)nn3)[C@H]2O)n(-c2cc(Cl)c(F)cc2Cl)n1 [Example A46] | IC50 (read-out: hGal IC50): 33 nM
 | Cc1nc2ccc(-n3ncnc3[C@@H]3O[C@H](CO)[C@H](O)[C@H](n4cc(-c5ccc(C#N)c(F)c5)nn4)[C@H]3O)cc2s1 [Example 230] | IC50 (read-out: hGal3 IC50): 450 nM
4000 | OC[C@H]1O[C@@H](c2oncc2-c2ccc(Cl)c(Cl)c2)[C@H](O)[C@@H](n2cc(-c3cc(F)c(F)c(F)c3)nn2)[C@H]1O [Example 288, (2R,3R,4S,5R,6R)-2-(4-(3,4-dichlorophenyl)isoxazol-5-yl)-6-(hydroxymethyl)-4-(4-(3,4,5-trifluorophenyl)-1H-1,2,3-triazol-1-yl)tetrahydro-2H-pyran-3,5-diol] | 
370 | OC[C@H]1O[C@@H](c2nncn2-c2cccc(OCc3ccccc3)c2)[C@H](O)[C@@H](n2cc(-c3cc(F)c(F)c(F)c3)nn2)[C@H]1O [Example 108] | 
260 | Cc1nc2cccc(-n3cnnc3[C@@H]3O[C@H](CO)[C@H](O)[C@H](n4cc(-c5cc(F)c(F)c(F)c5)nn4)[C@H]3O)c2s1 [Example 139] | 
130 | OC[C@H]1O[C@@H](c2nncn2-c2cc(F)cc(Cl)c2)[C@H](O)[C@@H](n2cc(-c3cc(F)c(F)c(F)c3)nn2)[C@H]1O [Example 140] | 

IC50 [1] [nM] | Structure (SMILES) | also measured
 | Cc1nc2ccc(-n3ncnc3[C@@H]3O[C@H](CO)[C@H](O)[C@H](n4cc(-c5ccc(Br)cc5)nn4)[C@H]3O)cc2s1 [Example 225] | IC50 (read-out: hGal3 IC50): 210 nM
158 | Cc1nc2ccc(-c3cnnn3[C@@H]3O[C@H](CO)[C@H](O)[C@H](n4cc(-c5cc(F)c(F)c(F)c5)nn4)[C@H]3O)cc2s1 [Example 8] | 
 | Cc1nc([C@@H]2O[C@H](CO)[C@H](O)[C@H](n3cc(-c4ccc(Cl)c(F)c4F)nn3)[C@H]2O)n(-c2cc(Cl)ccc2Br)n1 [Example A73] | IC50 (read-out: hGal IC50): 10 nM
140 | Cc1ccc(-n2cnnc2[C@@H]2O[C@H](CO)[C@H](O)[C@H](n3cc(-c4cc(F)c(F)c(F)c4)nn3)[C@H]2O)cc1C [Example 77] | 
40 | Cc1nc2ccc(-n3c(C(N)=O)nnc3[C@@H]3O[C@H](CO)[C@H](O)[C@H](n4cc(-c5cc(F)c(F)c(F)c5)nn4)[C@H]3O)cc2s1 [Example 277, 5-((2S,3R,4R,5R,6R)-3,5-dihydroxy-6-(hydroxymethyl)-4-(4-(3,4,5-trifluorophenyl)-1H-1,2,3-triazol-1-yl)tetrahydro-2H-pyran-2-yl)-4-(2-methylbenzo[d]thiazol-6-yl)-4H-1,2,4-triazole-3-carboxamide] | 
3000 | OC[C@H]1O[C@@H](c2nn[nH]c2-c2cccc(Cl)c2)[C@H](O)[C@@H](n2cc(-c3cc(F)c(F)c(F)c3)nn2)[C@H]1O [Example 290, (2S,3R,4R,5R,6R)-2-(5-(3-chlorophenyl)-1H-1,2,3-triazol-4-yl)-6-(hydroxymethyl)-4-(4-(3,4,5-trifluorophenyl)-1H-1,2,3-triazol-1-yl)tetrahydro-2H-pyran-3,5-diol] | 
 | Cn1nccc1[C@@H]1O[C@H](CO)[C@H](O)[C@H](n2cc(-c3cc(F)c(F)c(F)c3)nn2)[C@H]1O [Ex 286] | IC50 (read-out: hGal3 IC50): 10000 nM
 | Cc1nc([C@@H]2O[C@H](CO)[C@H](O)[C@H](n3cc(-c4cc(F)c(Cl)c(Cl)c4)nn3)[C@H]2O)n(-c2cc(Cl)ccc2OC(F)(F)F)n1 [Example A26] | IC50 (read-out: hGal IC50): 36 nM
190 | OC[C@H]1O[C@@H](c2nncn2-c2cccc(OC(F)(F)F)c2)[C@H](O)[C@@H](n2cc(-c3cc(F)c(F)c(F)c3)nn2)[C@H]1O [Example 93] | 
 | Cc1nc([C@@H]2O[C@H](CO)[C@H](O)[C@H](n3cc(-c4ccc(Cl)c(F)c4)nn3)[C@H]2O)n(-c2cc(F)ccc2C(F)(F)F)n1 [Example 254] | IC50 (read-out: hGal3 IC50): 110 nM
2150 | OC[C@H]1O[C@@H](c2nncn2Cc2nccs2)[C@H](O)[C@@H](n2cc(-c3cc(F)c(F)c(F)c3)nn2)[C@H]1O [Example 158] | 
70 | CS(=O)(=O)c1nnc([C@@H]2O[C@H](CO)[C@H](O)[C@H](n3cc(-c4cc(F)c(F)c(F)c4)nn3)[C@H]2O)n1-c1ccc(Cl)c(Cl)c1 [Example 279, (2S,3R,4R,5R,6R)-2-(4-(3,4-dichlorophenyl)-5-(methylsulfonyl)-4H-1,2,4-triazol-3-yl)-6-(hydroxymethyl)-4-(4-(3,4,5-trifluorophenyl)-1H-1,2,3-triazol-1-yl)tetrahydro-2H-pyran-3,5-diol] | 
11100 | CN(C)S(=O)(=O)c1ccc(-n2cnnc2[C@@H]2O[C@H](CO)[C@H](O)[C@H](n3cc(-c4cc(F)c(F)c(F)c4)nn3)[C@H]2O)cc1 [Example 115] | 
40 | Cc1nc2ccc(-n3ncnc3[C@H]3C[C@@H](n4cc(-c5cc(F)c(F)c(F)c5)nn4)[C@@H](O)[C@@H](CO)O3)cc2s1 [Example 176] | 
560 | OC[C@H]1O[C@@H](c2ncnn2-c2ccc(C(F)(F)F)cc2)[C@H](O)[C@@H](n2cc(-c3cc(F)c(F)c(F)c3)nn2)[C@H]1O [Example 25] | 
 | Cc1nc([C@@H]2O[C@H](CO)[C@H](O)[C@H](n3cc(-c4ccc(Cl)c(F)c4)nn3)[C@H]2O)n(-c2cc(Cl)ccc2OC(F)(F)F)n1 [Example A20] | IC50 (read-out: hGal IC50): 31 nM
